Results taken from article PMC6556873, “Rapid Covalent-Probe Discovery by Electrophile-Fragment Screening” (Journal of the American Chemical Society, 2019).
Like-named read-outs stand apart in the source and are kept apart here.

Legend:
in vitro [1] = experiment: in vitro; design: species or system HB2, HEK293; conditions: human, ccd841 cells
in vitro [2] = experiment: in vitro; design: species or system CCD841, HEK293; conditions: human, hb2 cells, read-out: HB-2 Cells Viability (%)
in vitro [3] = experiment: in vitro; design: species or system HB2, CCD841; conditions: human, hek293 cells
OTUB2 (OTUB2A) = biological target: T1, OTUB2 (OTUB2A) (Homo sapiens, UniProt Q96DC9); design: Intact protein LC/MS covalent labelling, fragments in pools of five, 200 uM each, 4 °C; conditions: 24 h, 4 °C, pool of five; 200 µM; covalent
T1 construct: full length residues 1-234, E. coli BL21(DE3)-R3, His tag removed by TEV, construct 27312 Da
T1 sequence (Q96DC9 1-234): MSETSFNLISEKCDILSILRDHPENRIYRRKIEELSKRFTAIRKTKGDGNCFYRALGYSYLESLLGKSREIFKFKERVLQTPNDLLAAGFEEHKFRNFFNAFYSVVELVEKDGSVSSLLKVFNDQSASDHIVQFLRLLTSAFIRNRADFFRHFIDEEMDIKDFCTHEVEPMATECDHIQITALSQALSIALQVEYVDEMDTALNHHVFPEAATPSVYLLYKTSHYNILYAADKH

PCAF = biological target: T2, PCAF (Homo sapiens, UniProt Q92831); design: Intact protein LC/MS covalent labelling, fragments in pools of five, 200 uM each, 4 °C; conditions: 24 h, 4 °C, pool of five; 200 µM; covalent
T2 construct: gene KAT2B
T2 sequence (Q92831 whole entry, the tested form may be a part): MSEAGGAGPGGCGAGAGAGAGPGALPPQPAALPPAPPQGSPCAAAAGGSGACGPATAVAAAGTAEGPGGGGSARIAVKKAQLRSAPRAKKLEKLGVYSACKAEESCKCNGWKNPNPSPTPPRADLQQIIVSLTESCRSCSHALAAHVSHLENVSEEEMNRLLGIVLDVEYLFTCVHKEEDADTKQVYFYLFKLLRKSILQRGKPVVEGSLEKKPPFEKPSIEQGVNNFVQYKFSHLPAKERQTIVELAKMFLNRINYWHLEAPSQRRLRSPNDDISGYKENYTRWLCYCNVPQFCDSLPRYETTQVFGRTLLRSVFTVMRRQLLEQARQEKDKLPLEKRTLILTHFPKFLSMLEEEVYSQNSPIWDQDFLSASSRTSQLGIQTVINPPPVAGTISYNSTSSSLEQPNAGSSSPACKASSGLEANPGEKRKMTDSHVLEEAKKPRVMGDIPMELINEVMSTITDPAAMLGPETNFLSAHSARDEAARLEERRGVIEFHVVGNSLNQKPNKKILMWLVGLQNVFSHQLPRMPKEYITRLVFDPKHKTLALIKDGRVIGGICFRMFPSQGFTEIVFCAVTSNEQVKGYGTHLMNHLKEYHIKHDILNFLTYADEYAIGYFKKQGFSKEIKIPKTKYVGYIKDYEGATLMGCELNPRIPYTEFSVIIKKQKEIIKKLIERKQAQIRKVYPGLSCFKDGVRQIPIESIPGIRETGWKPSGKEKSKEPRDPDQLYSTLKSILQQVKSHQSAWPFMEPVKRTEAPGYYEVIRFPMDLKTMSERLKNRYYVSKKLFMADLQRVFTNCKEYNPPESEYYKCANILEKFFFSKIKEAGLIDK

BSA = biological target: T3, BSA (Bos taurus, UniProt P02769); design: Intact protein LC/MS covalent labelling, fragments in pools of five, 200 uM each, 4 °C; conditions: 24 h, 4 °C, pool of five; 200 µM; covalent
T3 construct: gene ALB
T3 sequence (P02769 whole entry, the tested form may be a part): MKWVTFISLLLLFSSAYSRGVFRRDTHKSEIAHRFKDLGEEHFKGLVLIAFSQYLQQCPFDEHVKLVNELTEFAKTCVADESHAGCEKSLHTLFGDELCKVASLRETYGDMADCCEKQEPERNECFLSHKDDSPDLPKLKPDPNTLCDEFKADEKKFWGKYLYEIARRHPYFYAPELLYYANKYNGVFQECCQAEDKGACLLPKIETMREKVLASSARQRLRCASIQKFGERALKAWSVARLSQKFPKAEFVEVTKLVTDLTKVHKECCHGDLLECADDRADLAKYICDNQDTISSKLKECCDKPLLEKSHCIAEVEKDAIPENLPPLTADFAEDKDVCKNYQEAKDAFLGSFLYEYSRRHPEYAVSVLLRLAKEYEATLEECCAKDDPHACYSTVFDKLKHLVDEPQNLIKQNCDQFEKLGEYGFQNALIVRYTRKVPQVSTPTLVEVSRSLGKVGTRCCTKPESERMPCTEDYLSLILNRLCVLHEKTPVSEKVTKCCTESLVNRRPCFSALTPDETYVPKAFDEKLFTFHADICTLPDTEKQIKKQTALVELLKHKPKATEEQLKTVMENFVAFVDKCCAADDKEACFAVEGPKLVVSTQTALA

NUDT7 = biological target: T4, NUDT7 (Homo sapiens, UniProt P0C024); design: Intact protein LC/MS covalent labelling, fragments in pools of five, 200 uM each, 4 °C; conditions: 24 h, 4 °C, pool of five; 200 µM; covalent
T4 construct: residues 14-235, E. coli, pNIC28-Bsa4, N-terminal His6 tag removed by TEV, construct 26672 Da
T4 sequence (P0C024 14-235): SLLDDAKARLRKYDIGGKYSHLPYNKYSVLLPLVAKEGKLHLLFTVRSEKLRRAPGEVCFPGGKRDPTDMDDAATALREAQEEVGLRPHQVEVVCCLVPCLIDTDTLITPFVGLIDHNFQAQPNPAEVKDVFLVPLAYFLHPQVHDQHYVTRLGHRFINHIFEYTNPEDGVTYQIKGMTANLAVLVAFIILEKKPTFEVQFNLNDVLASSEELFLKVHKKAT

SMILES	viability at 48 h, 10 µM (in vitro [1]) [%]	viability at 48 h, 10 µM (in vitro [2]) [%]	viability at 48 h, 10 µM (in vitro [3]) [%]	OTUB2 (OTUB2 (OTUB2A))	PCAF (PCAF)	BSA (BSA)	NUDT7 (NUDT7)
C=CC(=O)NC1CCc2nc(-c3cc(F)ccc3F)cn2C1 (stereo not shown) [PCM-0102566]	106	97.4	78	0	0	0	0
C=CC(=O)NC1CCC(N2CCCS2(=O)=O)CC1 (stereo not shown) [PCM-0102568]	93.8	107	78	0	0	0	0
CC(NC(=O)CCl)C1CC2CCC1C2 (stereo not shown) [PCM-0102572]	91.1	92	80.7	0	0	0	0
O=C(NC1CCN(C(=O)CCl)CC1)c1ccccc1 [PCM-0102575]	68.2	63.8	40.6	0.09	0	0	0.09
O=C(CCl)Nc1c(Cl)cc(Cl)cc1C(=O)O [PCM-0102576]	105	100	100	0	0	0	0
Cc1ccc(NC(=O)CCl)cc1I [PCM-0102577]	17.9	4.6	2.4	0.8	0	0	0.34
O=C(CCl)NCc1ccc2c(c1)OCO2 [PCM-0102578]	99.9	97.5	85.6	0.16	0	0	0
Cc1cccc(N(C(=O)CCl)C2C=CS(=O)(=O)C2)c1 (stereo not shown) [PCM-0102579]	16.2	29.8	6.4	0	0	0	0.4
N#Cc1c(NC(=O)CCl)sc2c1CCCC2 [PCM-0102580]	78	77.2	67.4	0.1	0	0	0.72
C=CC(=O)Nc1ccccc1C(F)(F)F [PCM-0102581]	121	108	123	0	0	0	0
O=C(CCl)Nc1ccc(N2CCOCC2)cc1 [PCM-0102582]	79.5	74.9	57.2	0.54	0	0	0
C=CC(=O)NC1CCCc2cnn(C(C)C)c21 (stereo not shown) [PCM-0102583]	120	105	96.8	0	0	0	0
NC(=O)C1CCN(C(=O)CCl)CC1 [PCM-0102584]	97.9	105	89.8	0	0	0	0
O=C(CCl)Nc1cc2c(cc1Cl)OCCO2 [PCM-0102585]	68	38.7	15	0	0	0	0.12
Cc1cc(SC#N)cc(C)c1NC(=O)CCl [PCM-0102586]	14.2	27.3	51.6	0	0	0	0
Cc1n[nH]c(C)c1NC(=O)CCl [PCM-0102588]	98.7	102	98.6	0	0	0	0
